# Assay results reported in patent US11628164B2, “Composition containing salsolinol for treating liver cancer” (SUNGSHIN WOMEN'S UNIVERSITY R&DB FOUNDATION, priority 2020, dated 2023).
# Key:
# [1] = tested on: Snai1, Vimentin genes in liver tissue; assay: Real-time quantitative PCR of liver tissue, DEN-induced liver cancer mouse model; type: in vivo, C57BL/6 mouse; conditions: DEN+SAL liver tissue, corrected with β-actin
# Experimental: A normal mouse (M-Ctrl, n=5), a DEN-induced liver cancer mouse model (M-DEN, n=4), and a DEN-induced liver cancer mouse model treated with the salsolinol (M-DEN+SAL, n=5) are sacrificed, and liver tissues are obtained. And after that, trizol is added to lyse the liver tissues. 1 ml of a TRI reagent solution is added to the liver tissue, and after homogenization, centrifuge separation is performed at 4° C. and 12,000 rpm for 10 minutes. About 0.75 ml of the middle layer excluding the upper and lower debris is separated and put into a new tube. […]
# After removing the supernatant, the RNA is washed with 75% ethanol, centrifuge separation is performed at 4° C. at 7,500 rpm for 5 minutes, and the remaining ethanol is evaporated at room temperature. The separated total RNA is quantified by using Nandrop 2000 (Thermo), and after that, cDNA is synthesized by using a reverse transcription reaction oligo dT primer and RT enzyme. By using the synthesized cDNA as a template, after addition of each primer and Bio-Rad SYBR mix (#1725270) and amplification by using a Bio-Rad Real-Time PCR instrument, analysis is performed by using quantitative software. The products amplified by real time PCR are quantified by using a comparative cycle threshold (Ct) method. […]
# [2] = tested on: SK-Hep1; conditions: cited from earlier work
# [3] = tested on: SK-Hep1; assay: MTT cell viability, male-derived liver cancer cell line; type: cell-based, human; conditions: SK-Hep1, 5-100 μM salsolinol
# Experimental: (§1) SK-Hep1 and SNU387, which are human-derived hepatoma cell lines, are distributed from Korea Cell Line Bank. […] The SK-Hep1 and the SNU387 are cultured in a medium including a minimum essential medium (Dulbecco Modified Eagle Medium, DMEM) (Gibco BRL grand Island, N.Y., USA) and in a medium containing 10% FBS (HyClone Lab, Inc, Logan, Utah, USA), 100 U/ml penicillin. (penicillin) and 100 μg/ml streptomycin (Gibco, Grand Island, N.Y., USA) at 37° C. in an atmosphere of 5% CO2. The cultured liver cancer cell lines (SK-HEP1 and SNU387) are dispensed into each well of a 48-well plate so as to have a concentration of 5×10^4 cells. After culturing for 24 hours, the sample is treated with the salsolinol for 24 hours, 48 hours, and 72 hours so as to have a concentration of 5 μM, 15 μM, 25 μM, 50 μM, or 100 μM. After that, 250 μl of 0.5 mg/ml MTT solution (Sigma, St Louis, Mo., US) is added to each well and reacted at 37° C. for 1 hour. After removing the solution, MTT-formazione is lysed and washed with 250 μl of DMSO (Dimethylsulfoxide, Duksan, Gyeonggi, Korea), and then, the absorbance at 540 nm is measured by using a SpectraMax 190 microplate plate reader (Molecular Devices, LCC. San Jose, Calif.). […]
# [4] = tested on: SNU387; assay: MTT cell viability, female-derived liver cancer cell line; type: cell-based, human; conditions: SNU387, 5-100 μM salsolinol, 24, 48, 72 hours
# Experimental: as §1
# [5] = tested on: Ki-67, 8-OHdG in liver tissue; assay: Immunofluorescence staining of liver tissue (Ki-67, 8-OHdG); type: in vivo, C57BL/6 mouse
# Experimental: The salsolinol (200 mg/kg) is administered for 6 months through intraperitoneal injection three times per week from the time when the DEN-induced liver cancer mouse model (male) became 7 weeks of age. After the mouse is sacrificed, the experiment is performed.
# In the paraffin section slide requested to be manufactured by NORTHUS Co., Ltd., paraffin is removed by using xylene (Duksan, Gyeonggi, Korea). And, after a hydration process with low concentration ethanol (100, 90, 80, and 70% ethanol) at a high concentration, the slide is rinsed twice with running water. Since formaldehyde forms a cross-link between proteins to prevent a primary antibody from binding to the epitope of the antigen, the cross-link is removed by using an antigen retrieval reagent (sigma). After washing the slide thoroughly with running water, and dropping 2% triton for nuclear staining, the slide is left for 45 minutes. After washing the slide thoroughly with running water, blocking proceeds for 1 hour with a PBS solution containing 3% BSA to prevent non-specific binding. Then, after dropping a diluted PBS solution containing 3% BSA diluted with a primary antibody (8-OHdG, Ki-67) (1:500) on the slide, the slide is left at 4° C. for one day. After washing the slide with PBS and dropping a diluted secondary antibody (1:2000) on the slide, the slide is left at 4° C. for 1 hour. After washing the slide with PBS, staining with DAPI (1:200), and dropping 2-3 drops of mounting solution (sigma), the slide is covered with a slide cover. After about a day, the degree of fluorescence staining is checked by using a confocal microscope.
# Tumor-related genes Ki-67 and 8-OHdG expressed in the liver tissue of the DEN-induced liver cancer mouse model (male, DEN), the DEN-induced liver cancer mouse model (male, DEN+SAL) administered with the salsolinol, and the normal mouse (male, SAL) administered with the salsolinol are analyzed by using an immunofluorescence measurement method (refer to FIGS. 10 and 11).
# [6] = SK-Hep1, from KR10-2019-0129765
# [7] = normal mouse administered with salsolinol (SAL)
compound,measurement,setting,value
"CC1NCCc2cc(O)c(O)cc21 (stereo not drawn) [salsolinol, 6,7-dihydroxy-1-methyl-1,2,3,4-tetrahydroisoquinoline]",Snai1 gene expression level,[1],decreased to the expression level of expression in the normal mouse
same,Vimentin gene expression level,[1],decreased to the expression level of expression in the normal mouse
same,STAT3 phosphorylation,"[2]; SK-Hep1, from KR10-2019-0129765, 24 hours",increases signal transducer and transcription 3 (STAT3) phosphorylation
same,HO-1 expression,[2]; [6],increased
same,cytotoxicity,[2]; [6],exhibits cytotoxicity
same,cell viability (MTT),[3]; 48 and 72 hours,degree of decrease in cell viability according to the treatment concentration of salsolinol increases
same,cell viability (MTT),[3]; 24 hours,cell viability decreases as the concentration of salsolinol increases
same,cell viability (MTT),[4],cell viability is not decreased
same,Ki-67 expression,[5]; DEN+SAL liver,not confirmed
same,8-OHdG expression,[5]; DEN+SAL liver tissue,at a low level
same,8-OHdG expression,[5]; [7],at a low level
same,Ki-67 expression,[5]; [7],not confirmed
